Experimental data as given in US5047411A, “Benzazole compounds and pharmaceutical composition comprising the same” (Fujisawa Pharmaceutical Co., Ltd., priority 1988, dated 1991).
Counter-ions that a name gives are not always drawn.

These compounds were tested on stress ulcer (assay: Test A: Inhibition of stress ulcer). Conditions: rat, oral, given just before immobilization, ulcer area after 7 hours vs control.
Type: in vivo, male Sprague-Dawley rats
Method: Five male Sprague-Dawley rats, aged 7 weeks and weighing about 200 g were used per group for the study on stress ulcer after the fast for 24 hours. Each animal was immobilized in a restrain cage and immersed to a level of the xiphoid in a water bath kept 22° C. Each of the test compound suspended in 0.1% methylcellulose solution was administered orally (5 ml/kg) just before the immobilization. Seven hours later, the animals were sacrificed and their stomachs were removed. The stomach was then fixed with 2% formalin. The area of ulcers was measured for each animal, and percentage of inhibition was calculated by comparing the mean area of ulcers (mm^2) in the test animals with that in the control animals.
In the case of `CCNc1nc2ccc(CCc3ccccn3)cc2s1` [Test Compound (b), 6-[2-(2-Pyridyl)ethyl]-2-ethylaminobenzothiazole], the inhibition in vivo at 32 mg/kg is reported as 83.9%.
`CCNc1nc2ccc(CCc3nc4cc(OC)ccn4c3C)cc2o1` [Test Compound (l), 2-Ethylamino-6-[2-(7-methoxy-3-methylimidazo[1,2-a]pyridin-2-yl)ethyl]benzoxazole dihydrochloride] was tested, and the inhibition in vivo at 32 mg/kg was 98.6%.
`CNc1nc2ccc(Cc3ccccn3)cc2s1` [Test Compound (a), 6-[(2-Pyridyl)methyl]-2-methylaminobenzothiazole] gave an inhibition in vivo at 32 mg/kg of 87.8%.
In the case of `CCNc1nc2ccc(CCc3cn4ccc(C)cc4n3)cc2o1` [Test Compound (d)], the inhibition in vivo at 32 mg/kg is reported as 84.6%.
Work on `Nc1nc2ccc(CCc3ccccn3)cc2s1` [Test Compound (c), 6-[2-(2-Pyridyl)ethyl]-2-aminobenzothiazole] yielded an inhibition in vivo at 32 mg/kg of 88.5%.
Compound `CNc1nc2ccc(CCc3nc4cc(C)ccn4c3C)cc2o1` [Test Compound (f), 6-[2-(3,7-Dimethylimidazo[1,2-a]pyridin-2-yl)ethyl]-2-methylaminobenzoxazole] has an inhibition in vivo at 32 mg/kg of 85.1%.
`COc1ccn2c(C)c(CCc3ccc4nc(N)oc4c3)nc2c1` [Test Compound (h), 6-[2-(7-Methoxy-3-methylimidazo[1,2-a]pyridin-2-yl)ethyl]-2-aminobenzoxazole] showed an inhibition in vivo at 32 mg/kg of 93.4%.
Compound `Nc1nc2ccc(Cc3ccccn3)cc2s1` [Test Compound (e), 6-[(2-Pyridyl)methyl]-2-aminobenzothiazole] has an inhibition in vivo at 32 mg/kg of 98.2%.
`Cc1ccn2c(C)c(CCc3ccc4nc(N)sc4c3)nc2c1` [Test Compound (g), 6-[2-(3,7-Dimethylimidazo[1,2-a]pyridin-2-yl)ethyl]-2-aminobenzothiazole d ihydrochloride] was tested, and the inhibition in vivo at 32 mg/kg was 85.4%.

What follows are compounds tested against T1, H2-receptor (Cavia porcellus, UniProt P47747) (assay: Test B: H2-receptor antagonism in isolated guinea-pig atrium). Conditions: 0.5 h, dose 1.0 × 10^-6 g/ml, inhibition of histamine-induced increase in beating rate, 30 minutes after dosing.
T1 construct: from tissue; host or cells: guinea-pig atrium (isolated atrial strip)
T1 sequence (P47747 whole entry): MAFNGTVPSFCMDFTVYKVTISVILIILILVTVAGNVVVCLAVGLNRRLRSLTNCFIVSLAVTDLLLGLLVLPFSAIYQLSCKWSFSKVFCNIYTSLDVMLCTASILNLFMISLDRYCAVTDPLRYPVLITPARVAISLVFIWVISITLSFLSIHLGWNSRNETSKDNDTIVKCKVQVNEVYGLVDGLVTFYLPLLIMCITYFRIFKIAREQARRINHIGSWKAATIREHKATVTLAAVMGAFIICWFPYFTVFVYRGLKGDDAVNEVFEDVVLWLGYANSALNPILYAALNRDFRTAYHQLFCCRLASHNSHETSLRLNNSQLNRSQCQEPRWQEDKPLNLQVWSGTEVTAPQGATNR
Type: cell-based
Method: The atrial strip isolated from guinea-pig was suspended under an initial tension 0.3 to 0.6 g in an organ bath containing Tyrode solution at 30° C., aerated 95%O2 -5%CO2 gas. The beating rate and amplitude of contraction of the atrium were recorded by means of a transducer and a polygraph. Histamine ([…]) was added to the bathing fluid and the increase in beating rate after dosing was measured. Addition of test compound was made 30 minutes after washing out histamine. Inhibitory effect of test compound was calculated by comparing histamine-induced increases in beating rate before and 30 minutes after dosing with test compound.
`CNc1nc2ccc(CCc3nc4cc(OC)ccn4c3C)cc2o1` [Test Compound (k), 6-[2-(7-Methoxy-3-methylimidazo[1,2-a]pyridin-2-yl)ethyl]-2-methylaminobenzoxazole dihydrochloride] was tested, and the inhibition at 1 µg/mL was 92.5%.

Same assay, conditions: 0.5 h, dose 3.2 × 10^-6 g/ml, inhibition of histamine-induced increase in beating rate, 30 minutes after dosing
Compound `Cc1ccn2c(C)c(CCc3ccc4nc(N)oc4c3)nc2c1` [Test Compound (i), 6-[2-(3,7-Dimethylimidazo[1,2-a]pyridin-2-yl)ethyl]-2-aminobenzoxazole] has an inhibition at 3.2 µg/mL of 93.1%.
`CCNc1nc2ccc(CCc3nc4cc(C)ccn4c3C)cc2o1` [Test Compound (j), 6-[2-(3,7-Dimethylimidazo[1,2-a]pyridin-2-yl)ethyl]-2-ethylaminobenzoxazole] gave an inhibition at 3.2 µg/mL of 98%.
Compound `COc1ccn2c(C)c(CCc3ccc4nc(N)oc4c3)nc2c1` [Test Compound (h), 6-[2-(7-Methoxy-3-methylimidazo[1,2-a]pyridin-2-yl)ethyl]-2-aminobenzoxazole] has an inhibition at 3.2 µg/mL of 100%.
